Test results published in paper PMC5483439, “The Effect of Pungent and Tingling Compounds from Piper nigrum L. on Background K^+ Currents” (Frontiers in Pharmacology, 2017).

What was measured:
[1] = test system: T1, mKCNK18; assay: Two-electrode voltage clamp on Xenopus oocytes expressing mKCNK18; type: cell-based, mouse; settings: 1–1000 μM
T1 construct: expressed in transfected cells; host or cells: Xenopus laevis oocytes injected with cRNA (subcloned into pSGEM; clone from Prof; Dr. P. Enyedi)
Source text: (§1) Human KCNK3 (TASK-1, K2P3.1) cloned into the expression vector pIRES-CD8 was a gift from Dr. Fabrice Duprat (Institut National de la Santé et de la Recherche Médicale, Antipolis, France). Human KCNK18 (hTRESK, K2P18.1), cloned into the plasmid pEXO, was a gift from Dr. P. Enyedi (Semmelweis University, Budapest, Hungary). These plasmids were linearized with the restriction enzymes BamHI and XbaI, respectively, and then used as templates for in vitro transcription. Human KCNK9 (hTASK-3, K2P9.1) cloned into the expression vector pCR4-TOPO, was purchased from Imagenes (Berlin, Germany). The plasmid was linearized with the restriction enzyme SspI, to generate a linear cDNA template for in vitro transcription. mKCNK3 was isolated from mouse heart by standard procedures and inserted into pSGEM. mKCNK9 and mKCNK18 were kindly provided by Dr. D. Bayliss (University of Virginia, Charlottesville, VA, United States) and Prof. Dr. P. Enyedi (Semmelweis University, Budapest, Hungary). Both channels were subcloned into pSGEM. The pSGEM plasmids were subsequently linearized with the restriction enzyme PacI. The capped RNAs were synthesized in the presence of the capping analog m7G(5′)ppp(5′)G using the AmpliCap-T7 Message Maker kit (Epicentre, Madison, WI, United States). The cRNA was dissolved in nuclease-free water to obtain a final concentration of 100 ng/μL. […]

[2] = target: T2, mKCNK9 (Mus musculus, UniProt Q3LS21); assay: Two-electrode voltage clamp on Xenopus oocytes expressing mKCNK9; type: cell-based; settings: 1–1000 μM
T2 construct: expressed in transfected cells; host or cells: Xenopus laevis oocytes injected with cRNA (subcloned into pSGEM; clone from Dr. D. Bayliss)
T2 sequence (Q3LS21 whole entry): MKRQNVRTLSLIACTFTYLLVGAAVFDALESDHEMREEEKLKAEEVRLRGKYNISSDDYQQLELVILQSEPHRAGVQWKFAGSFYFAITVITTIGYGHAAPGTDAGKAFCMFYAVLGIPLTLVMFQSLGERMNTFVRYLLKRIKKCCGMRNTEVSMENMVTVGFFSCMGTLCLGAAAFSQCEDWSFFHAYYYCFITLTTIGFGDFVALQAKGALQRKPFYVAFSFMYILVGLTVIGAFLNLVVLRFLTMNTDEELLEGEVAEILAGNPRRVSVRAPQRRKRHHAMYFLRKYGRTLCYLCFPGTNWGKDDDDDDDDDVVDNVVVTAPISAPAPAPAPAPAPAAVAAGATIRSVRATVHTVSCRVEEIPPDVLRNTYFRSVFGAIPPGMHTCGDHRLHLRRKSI
Source text: as §1

[3] = target: T3, hKCNK3 (Homo sapiens, UniProt O14649); set-up: method as in Beltrán et al., 2013; settings: hKCNK3 in Xenopus oocytes; ref Beltrán et al., 2013; cited from earlier work
T3 construct: expressed in transfected cells; host or cells: Xenopus laevis oocytes injected with cRNA (plasmid pIRES-CD8, gift of Dr. Fabrice Duprat)
T3 sequence (O14649 whole entry): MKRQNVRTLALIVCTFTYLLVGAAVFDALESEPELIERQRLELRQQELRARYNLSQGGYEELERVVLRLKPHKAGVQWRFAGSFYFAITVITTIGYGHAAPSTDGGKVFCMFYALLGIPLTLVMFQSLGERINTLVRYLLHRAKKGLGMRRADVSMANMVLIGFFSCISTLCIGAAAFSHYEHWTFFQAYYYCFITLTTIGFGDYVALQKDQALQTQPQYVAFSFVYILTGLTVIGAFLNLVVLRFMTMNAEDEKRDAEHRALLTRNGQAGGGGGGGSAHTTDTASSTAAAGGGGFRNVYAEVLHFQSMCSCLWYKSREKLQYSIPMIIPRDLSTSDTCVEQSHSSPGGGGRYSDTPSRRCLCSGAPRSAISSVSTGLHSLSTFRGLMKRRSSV

- IC50 [2]: 214 ± 60.1 µM
Structure (SMILES): O=C(/C=C/C=C/c1ccc2c(c1)OCO2)N1CCCCC1 [1a, piperine]
- effect on mKCNK18 [1]: much less affected
- % of basal activity after saturating concentrations [3]: 46 ± 10%
